Tested on: NCI-H1341 complex spheroids, percent test/control
Test: Anticancer human tumor NCI-H1341 cell line growth inhibition [AhR];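 also: spheroids exposed to agents for seven days before readout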
Details: for IC50: curve of first compound; for viability, T/C: stronger effect = lower value
Source text: Multicellular complex tumor spheroid response to aryl hydrocarbon receptor antagonists in combination with a variety of drugs and investigational agents in selected tumor cell lines
The current study was undertaken to assess response to aryl hydrocarbon receptor antagonists in combination with standard-of-care drugs and investigational agents in solid tumor complex spheroid models. Complex spheroids include a stromal component modeled by human endothelial cells (HUVEC) and fibroblasts modeled by human mesenchymal stem cells (MSCs). The concentration ranges selected for each drug and investigational agent were based upon clinically achievable concentrations if the clinical Cmax of the agent was known.
Compounds. The drugs and investigational agents: BAY 2416964 (NSC825713), GNF351 (NSC835774), CH-223191 (NSC835775), CPI-455 (NSC825282), aza-TdCyd (NSC777586), decitabine (NSC127716), belinostat (NSC758774), entinostat (NSC756642), pevonedistat (NSC761192), tazemetostat (NSC777109), talazoparib (NSC765396), olaparib (NSC753686), selinexor (NSC780203), nedisertib (M3814, NSC802822), bortezomib (NSC756655), venetoclax (NSC766270), doxorubicin (NSC123127), elimusertib (BAY189344, NSC800525), ceralasertib (AZD6738, NSC777638), TAK-243 (NSC785004), alisertib (NSC759677), etoposide (NSC141540), topotecan (NSC609699), eribulin (NSC707389), gemcitabine (NSC613327), carboplatin (NSC241240), cisplatin (NSC119875), and SN-38 (NSC673596) were obtained from the National Cancer Institute (NCI) Developmental Therapeutics Program Chemical Repository (32). The FDA-approved anticancer drug set is available from the Developmental Therapeutics Program at https://dtp.cancer.gov/organization/dscb/obtaining/available plates.htm. […] The stock solutions were prepared in dimethyl sulfoxide (DMSO, Sigma-Aldrich, St. Louis, MO, cat. D2650), except for the platinum compounds which were prepared in saline (Quality Biological, Gaithersburg, MD, cat. 114-055-101), at 800-fold the tested concentration and stored at -70 degrees C prior to their use. All drugs and investigational agents were tested over a range starting from a high concentration at or near the clinical Cmax and decreasing in half-log increments. If the clinical Cmax for an agent had not been determined, the highest concentration tested was 10 microM (Table 1).
Cell Culture. All cells were maintained in an incubator at 37 degrees C and 5% CO2 with 95% humidity. The PDC lines were cultured according to standard operating procedures established by the NCI PDMR (https://pdmr.cancer.gov). Briefly, all PDCs were thawed and cultured in Matrigel-coated flasks prepared with a working solution of 1X Ham's F-12 nutrient mix, without supplementation (Invitrogen, Waltham, MA, cat. 11765054), 100 U/mL penicillin-streptomycin (Invitrogen, cat. 15140122), and 2.5% Matrigel (Corning Inc., Corning, NY, cat. 354248) for the first three passages. All PDCs were cultured in complete DMEM/F-12 media containing advanced DMEM/F-12 (Invitrogen, cat. 12634028), 4.9% defined fetal bovine serum, heat inactivated (HyClone Laboratories Inc., Logan, UT, cat. SH30070.03HI), 389 ng/mL hydrocortisone (Sigma-Aldrich, cat. H4001), 9.7 ng/mL human EGF recombinant protein (Invitrogen, cat. PHG0313), 23.4 microg/mL adenine (Sigma-Aldrich, cat. A2786), 97.3 U/mL penicillin-streptomycin (Invitrogen, cat. 15140122), 1.9 mM L-glutamine (Invitrogen, cat. 25030081), and 9.7 microM Y-27632 dihydrochloride (Tocris Bioscience, Bristol, United Kingdom, cat. 1254). The PDCs were cultured in complete DMEM/F12 media without 10 microM Y-27632 dihydrochloride for at least two passages prior to the screen. The established cell lines NCI-H1341 and […] were cultured in DMEM/F-12, HEPES (Invitrogen, cat. 11330032), 5% defined fetal bovine serum (HyClone Laboratories Inc., cat. SH30070.03), ITS premix universal culture supplement [insulin (5 microg/mL), transferrin (5 microg/mL), and selenious acid (5 ng/mL)] […]

[1] = second compound 0.1 µM, first compound 0.00316 µM
[2] = second compound 0.1 µM, first compound 0.01 µM
[3] = second compound 0.1 µM, first compound 0.0316 µM
[4] = second compound 0.1 µM, first compound 0.1 µM
[5] = second compound 0.316 µM, first compound 0.00316 µM
[6] = second compound 0.316 µM, first compound 0.01 µM
[7] = second compound 0.316 µM, first compound 0.0316 µM
[8] = second compound 0.316 µM, first compound 0.1 µM
[9] = second compound 1 µM, first compound 0.00316 µM
[10] = second compound 1 µM, first compound 0.01 µM
[11] = second compound 1 µM, first compound 0.0316 µM
[12] = second compound 1 µM, first compound 0.1 µM
[13] = second compound 3.16 µM, first compound 0.00316 µM
[14] = second compound 3.16 µM, first compound 0.01 µM
[15] = second compound 3.16 µM, first compound 0.0316 µM
[16] = second compound 3.16 µM, first compound 0.1 µM
[17] = second compound 10 µM, first compound 0.00316 µM
[18] = second compound 10 µM, first compound 0.01 µM
[19] = second compound 10 µM, first compound 0.0316 µM
[20] = second compound 10 µM, first compound 0.1 µM
[21] = second compound 0.1 µM, first compound 0.316 µM
[22] = second compound 0.1 µM, first compound 1 µM
[23] = second compound 0.1 µM, first compound 3.16 µM
[24] = second compound 0.1 µM, first compound 10 µM
[25] = second compound 0.316 µM, first compound 0.316 µM
[26] = second compound 0.316 µM, first compound 1 µM
[27] = second compound 0.316 µM, first compound 3.16 µM
[28] = second compound 0.316 µM, first compound 10 µM
[29] = second compound 1 µM, first compound 0.316 µM
[30] = second compound 1 µM, first compound 1 µM
[31] = second compound 1 µM, first compound 3.16 µM
[32] = second compound 1 µM, first compound 10 µM
[33] = second compound 3.16 µM, first compound 0.316 µM
[34] = second compound 3.16 µM, first compound 1 µM
[35] = second compound 3.16 µM, first compound 3.16 µM
[36] = second compound 3.16 µM, first compound 10 µM
[37] = second compound 10 µM, first compound 0.316 µM
[38] = second compound 10 µM, first compound 1 µM
[39] = second compound 10 µM, first compound 3.16 µM
[40] = second compound 10 µM, first compound 10 µM

IC50 (second compound 0.1 µM) [nM]	IC50 (second compound 0.316 µM) [nM]	IC50 (second compound 1 µM) [nM]	IC50 (second compound 3.16 µM) [nM]	IC50 (second compound 10 µM) [nM]	SMILES	viability, T/C [3] [%]	viability, T/C [4] [%]	viability, T/C [7] [%]	viability, T/C [8] [%]	viability, T/C [11] [%]	viability, T/C [12] [%]	viability, T/C [15] [%]	viability, T/C [16] [%]	viability, T/C [19] [%]	viability, T/C [20] [%]	viability, T/C [21] [%]	viability, T/C [22] [%]	viability, T/C [25] [%]	viability, T/C [26] [%]	viability, T/C [29] [%]	other results
31.3	60.3	48.9	31.4	32.4	CC[C@@]1(O)C(=O)OCc2c1cc1n(c2=O)Cc2cc3c(CN(C)C)c(O)ccc3nc2-1 + CC(CO)NC(=O)c1cc(-c2ccc(Cl)cc2)nn(-c2cnn(C)c2)c1=O	50.3	40.2	58.3	43.5	58.8	37.2	49.5	39.1	48	36.6						viability, T/C (second compound 0.1 µM, first compound 0.000316 µM): 81.7%; viability, T/C (second compound 0.1 µM, first compound 0.001 µM): 85.1%; viability, T/C [1]: 103%; viability, T/C [2]: 81.5%; viability, T/C (second compound 0.316 µM, first compound 0.000316 µM): 84.4%; viability, T/C (second compound 0.316 µM, first compound 0.001 µM): 66.2%; viability, T/C [5]: 84.6%; viability, T/C [6]: 75.8%; viability, T/C (second compound 1 µM, first compound 0.000316 µM): 90.7%; viability, T/C (second compound 1 µM, first compound 0.001 µM): 84%; viability, T/C [9]: 65%; viability, T/C [10]: 76.8%; viability, T/C (second compound 3.16 µM, first compound 0.000316 µM): 87.3%; viability, T/C (second compound 3.16 µM, first compound 0.001 µM): 74.8%; viability, T/C [13]: 79.2%; viability, T/C [14]: 71.4%; viability, T/C (second compound 10 µM, first compound 0.000316 µM): 80.8%; viability, T/C (second compound 10 µM, first compound 0.001 µM): 77.8%; viability, T/C [17]: 69.2%; viability, T/C [18]: 70.1%
1190	673	471	294	135	COc1cc(C2c3cc4c(cc3C(OC3OC5COC(C)OC5C(O)C3O)C3COC(=O)C23)OCO4)cc(OC)c1O (stereo not given) + CC(CO)NC(=O)c1cc(-c2ccc(Cl)cc2)nn(-c2cnn(C)c2)c1=O	85.9	84.6	72.4	69.1	74.2	76.5	74.6	75.6	63.5	56.8	65.2	50.4	55.5	44.8	54.4	viability, T/C [23]: 44.8%; viability, T/C [24]: 33.3%; viability, T/C [27]: 39.4%; viability, T/C [28]: 28.7%; viability, T/C [30]: 44.3%; viability, T/C [31]: 41.3%; viability, T/C [32]: 36.1%; viability, T/C [33]: 48.2%; viability, T/C [34]: 40.2%; viability, T/C [35]: 41.1%; viability, T/C [36]: 28.6%; viability, T/C [37]: 40.6%; viability, T/C [38]: 33.4%; viability, T/C [39]: 33.2%; viability, T/C [40]: 27.3%
108	< 31.6	103	< 31.6	< 31.6	COc1cccc2c1C(=O)c1c(O)c3c(c(O)c1C2=O)CC(O)(C(=O)CO)CC3OC1CC(N)C(O)C(C)O1 (stereo not given) + CC(CO)NC(=O)c1cc(-c2ccc(Cl)cc2)nn(-c2cnn(C)c2)c1=O	51	53	51.3	40.9	48.4	53.3	43.9	53.7	41.6	36.8	32.4	6.25	28.4	6.42	30.2	viability, T/C [23]: 0.83%; viability, T/C [24]: 2.75%; viability, T/C [27]: 0.79%; viability, T/C [28]: 2.4%; viability, T/C [30]: 4.94%; viability, T/C [31]: 1.46%; viability, T/C [32]: 2.75%; viability, T/C [33]: 26.7%; viability, T/C [34]: 3.92%; viability, T/C [35]: 3.09%; viability, T/C [36]: 2.61%; viability, T/C [37]: 15.2%; viability, T/C [38]: 0.93%; viability, T/C [39]: 2.19%; viability, T/C [40]: 2.31%
154	179	85.3	207	215	Nc1ncn(C2CC(O)C(CO)O2)c(=O)n1 (stereo not given) + CC(CO)NC(=O)c1cc(-c2ccc(Cl)cc2)nn(-c2cnn(C)c2)c1=O	81.8	59.3	85.2	61.8	81.3	45	67.1	66.3	79.8	67.5	34.2	26.6	39.1	31.8	32.5	viability, T/C [1]: 76.5%; viability, T/C [2]: 85.7%; viability, T/C [5]: 92.1%; viability, T/C [6]: 99%; viability, T/C [9]: 92.2%; viability, T/C [10]: 86.3%; viability, T/C [30]: 33.7%; viability, T/C [13]: 79.8%; viability, T/C [14]: 65.6%; viability, T/C [33]: 40.6%; viability, T/C [34]: 30.9%; viability, T/C [17]: 82.1%; viability, T/C [18]: 69.6%; viability, T/C [37]: 41%; viability, T/C [38]: 27.2%
